Data taken from the NIST ThermoML archive (doi:10.1016/j.fluid.2011.06.020).

Conditions: Liquid, Closed cell (Static) method

CCOC(=O)CCC(=O)O [4-ethoxy-4-oxobutanoic acid]
Conditions | vapor or sublimation pressure [kPa]
417.7 K | 1.587
421.2 K | 2.089
425.1 K | 2.591
428.5 K | 3.094
433 K | 3.596
435.6 K | 4.098
436.7 K | 4.601
439.8 K | 5.103
440.3 K | 5.605
443 K | 6.107
444.3 K | 6.61
445.9 K | 7.112
447.6 K | 7.614
449.1 K | 8.117
450.5 K | 8.619
452.1 K | 9.121
453.2 K | 9.624
454.7 K | 10.13
455.7 K | 10.63
456.5 K | 11.13
457.2 K | 11.63
458.2 K | 12.14
458.4 K | 12.64
459.8 K | 13.14
460.1 K | 13.64
460.3 K | 14.14
461.1 K | 14.65
462 K | 15.15
463.3 K | 15.65
463.8 K | 16.15
464.2 K | 16.66
464.5 K | 17.16
465.2 K | 17.66
465.8 K | 18.16
466.7 K | 18.67
467.3 K | 19.17
467.8 K | 19.67
468.3 K | 20.17
468.8 K | 20.67
469.5 K | 21.18
469.7 K | 21.68
469.8 K | 22.18
470.1 K | 22.68
470.3 K | 23.19
470.4 K | 23.69
470.5 K | 24.19
471.1 K | 24.69
471.4 K | 25.2
471.9 K | 25.7
